Data as given in ChEMBL document CHEMBL1201862, “PubChem BioAssay data set” (2004).
Active and inactive are the calls of the source.

Tests used:
[1] = Trypanosoma cruzi growth suppression in host cells – NIH3T3 host cells, beta-gal luminescence, confirmation (AID 2044); type: functional, cell-based;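 note: intracellular parasites grown in NIH/3T3 mouse fibroblasts as host cells; luminescent beta-galactosidase reporter signal from transgenic T. cruzi replicating inside host cells; inhibitors lower the luminescence signal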
[2] = NIH3T3 cell viability loss – ATP luminescence, mouse fibroblasts, counter-screen, dose response (AID 2010); type: functional, cell-based;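 note: cells exposed to compound for about 90 hours before reading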
Caspase-6 = target: T1, Caspase-6 (Homo sapiens, UniProt P55212); assay: inhibition of CASP6 peptide cleavage – biochemical, VEID-R110 fluorescence, cherry-pick, dose response (AID 720632)
T1 sequence (P55212 whole entry): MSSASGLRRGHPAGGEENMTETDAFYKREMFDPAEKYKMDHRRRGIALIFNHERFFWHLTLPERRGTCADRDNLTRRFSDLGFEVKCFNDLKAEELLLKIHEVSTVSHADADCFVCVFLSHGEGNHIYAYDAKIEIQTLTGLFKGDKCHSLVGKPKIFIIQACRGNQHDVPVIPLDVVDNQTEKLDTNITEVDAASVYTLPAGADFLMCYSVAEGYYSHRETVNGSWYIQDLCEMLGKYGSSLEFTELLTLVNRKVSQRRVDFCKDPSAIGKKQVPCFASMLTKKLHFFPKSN

[3] = inhibition of ARNT PAS-B/TACC3 complex formation – biochemical, AlphaScreen, cherry-picked samples, confirmation (AID 651703); type: functional, Homo sapiens;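 note: His-tagged ARNT PAS-B domain paired with GST-TACC3 E629A dimer coactivator fragment; potency of inhibitors that break up the complex and lower AlphaScreen signal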
[4] = bead-based luminescence quenchers, dual-tagged ARNT – biochemical, AlphaScreen, cherry-pick, artefact control for ARNT-TACC3 interaction inhibitor project, dose response (AID 651705); type: functional;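 note: AlphaScreen bead proximity signal that flags compounds interfering with the detection technology; potency reflects signal decrease which marks the compound as an assay artifact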
[5] = target: T2, Carboxy-terminal domain RNA polymerase II polypeptide A small phosphatase 1 (Homo sapiens, UniProt Q9GZU7); assay: CTDSP1 inhibitors, concentration-response, biochemical, absorbance readout, ultra-high-throughput screen actives (AID 540297); type: functional
T2 sequence (Q9GZU7 whole entry): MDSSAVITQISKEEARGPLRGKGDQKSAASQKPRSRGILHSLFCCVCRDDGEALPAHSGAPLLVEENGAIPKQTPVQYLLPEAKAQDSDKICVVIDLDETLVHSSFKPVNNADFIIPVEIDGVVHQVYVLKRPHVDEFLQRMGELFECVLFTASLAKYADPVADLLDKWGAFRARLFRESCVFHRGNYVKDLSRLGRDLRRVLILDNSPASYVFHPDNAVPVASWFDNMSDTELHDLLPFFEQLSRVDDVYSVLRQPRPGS

[6] = target: Potassium voltage-gated channel subfamily KQT member 2 (Rattus norvegicus, UniProt O88943); assay: blockers of KCNQ2 channel current – cell-based, automated electrophysiology, set II, rat KCNQ2, dose response (AID 588637); type: functional
HEK293 = assay: EBV LMP1 TES2 canonical NF-kB signalling blockers – cell-based, HEK293, luciferase, cherry-pick, dose response (AID 588343); type: functional; settings: Homo sapiens
Interleukin-8 [7] = target: T3, Interleukin-8 (Homo sapiens, UniProt P10145); assay: Dose Response confirmation of uHTS small molecule hits for cystic fibrosis induced NFkb Inhibitors in a TNFa-induced IL8 counterscreen.; type: functional; settings: read-out: IC50_Mean
Interleukin-8 [8] = target: T3, Interleukin-8; assay: Dose Response confirmation of uHTS small molecule hits for cystic fibrosis induced NFkb Inhibitors in a PAF-induced IL8 counterscreen.; type: functional; settings: read-out: IC50_Mean
[9] = target: Botulinum neurotoxin type F (Clostridium botulinum, UniProt P30996); assay: High-throughput multiplex microsphere dose response for inhibitors of toxin protease, specifically Botulinum neurotoxin light chain F protease, compounds from Cherry Pick 02.; type: functional; settings: read-out: EC50_MICROM
Lethal factor = Lethal factor (Bacillus anthracis, UniProt P15917); assay: High-throughput multiplex microsphere dose response for inhibitors of toxin protease, specifically Lethal Factor protease, compounds from Powder Set 01.; type: functional, Bacillus anthracis str. A2012; settings: read-out: EC50_MICROM
[10] = target: Botulinum neurotoxin type A (Clostridium botulinum (strain Hall / ATCC 3502 / NCTC 13319 / Type A), UniProt P0DPI1); assay: High-throughput multiplex microsphere dose response for inhibitors of toxin protease, specifically Botulinum neurotoxin light chain A protease, compounds from Powder Set 01.; type: functional, Clostridium botulinum A str. ATCC 3502; settings: read-out: EC50_MICROM
[11] = inhibitors of EBV LMP1 NF-kappaB signaling – cell-based, luciferase reporter, luminescence, dry powder, set 2, dose response (AID 624376); type: functional
cells [12] = assay: cells
[13] = blockers of HIV-1 envelope-mediated cell-cell fusion – cherry-pick, dose response (AID 652057); type: functional, cell-based
[14] = NIH-3T3 fibroblast cytotoxicity, dose response, cytotoxicity control, cell-based, fluorescence, Alamar Blue, secondary assay (AID 2327); type: functional;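 note: NIH-3T3 mouse fibroblasts cultured with fluconazole at 8 µg/mL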
[15] = blockers of HIV-1 ZM109 envelope-driven cell-cell fusion – HeLa effector, CEM target cells, luciferase, cherry-pick, dose response (AID 652058); type: functional, cell-based;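 note: luciferase signal from HIV-1 Env mediated cell-cell fusion of effector and target cells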
[16] = HIV-1 AD8 envelope cell-cell fusion blockers – cherry-pick, dose response (AID 652062); type: functional, cell-based;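 note: luciferase signal from cell-cell fusion driven by HIV-1 clade B AD8 Env; potency is for inhibitors of fusion seen as a drop in luminescence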
[17] = viability loss in CEM21 cells – cell-based, CellTiter-Glo luminescence, cherry-picked, cytotoxicity control for viral fusion inhibitor project, dose response (AID 652042); type: functional;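 note: potency for signal decrease meaning cytotoxicity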
[18] = target: T4, Calpain-2 catalytic subunit (Sus scrofa, UniProt P43367); assay: m-calpain protease blockers, concentration series – biochemical, fluorogenic peptide substrate, dose response (AID 1420); type: functional
T4 sequence (P43367 whole entry): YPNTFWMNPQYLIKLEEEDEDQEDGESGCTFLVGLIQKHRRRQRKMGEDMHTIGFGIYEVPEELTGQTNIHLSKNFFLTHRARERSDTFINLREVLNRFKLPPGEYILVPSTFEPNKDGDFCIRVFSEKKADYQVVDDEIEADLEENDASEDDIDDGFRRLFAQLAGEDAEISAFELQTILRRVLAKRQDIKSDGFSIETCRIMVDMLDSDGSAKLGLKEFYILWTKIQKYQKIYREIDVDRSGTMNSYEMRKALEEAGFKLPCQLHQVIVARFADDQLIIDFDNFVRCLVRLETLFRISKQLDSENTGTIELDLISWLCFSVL

cells [19] = type: functional, cell-based; settings: HEK-CNG
[20] = fluconazole-exposed Candida albicans growth modulators – fluorescence, retest, confirmation (AID 2467); type: functional, cell-based
Paired box protein Pax-8 = Paired box protein Pax-8 (Homo sapiens, UniProt Q06710); assay: PAX8 transcriptional activity inhibition in RMG-I – RMG-I cells, luciferase, cherry-pick, dose response (AID 687027); type: functional, cell-based;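 note: luciferase reporter driven by Pax8 target thyroperoxidase promoter measured by SteadyGlo luminescence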
Galanin receptor type 3 = target: T5, Galanin receptor type 3 (Homo sapiens, UniProt O60755); assay: Fluorescence-based cell-based primary high throughput dose response assay to identify antagonists of the Galanin Receptor 3 (GalR3).; type: functional
T5 sequence (O60755 whole entry): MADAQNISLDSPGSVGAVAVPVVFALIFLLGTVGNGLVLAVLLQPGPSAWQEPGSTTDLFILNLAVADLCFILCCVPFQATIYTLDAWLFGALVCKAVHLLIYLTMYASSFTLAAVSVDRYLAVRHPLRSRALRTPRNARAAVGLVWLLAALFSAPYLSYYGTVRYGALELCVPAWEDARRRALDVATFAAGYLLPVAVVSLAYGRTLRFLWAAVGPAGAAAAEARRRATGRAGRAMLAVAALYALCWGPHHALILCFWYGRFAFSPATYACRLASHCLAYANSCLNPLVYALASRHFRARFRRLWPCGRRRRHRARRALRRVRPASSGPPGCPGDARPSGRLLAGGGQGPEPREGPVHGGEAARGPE

T3 sequence (P10145 whole entry): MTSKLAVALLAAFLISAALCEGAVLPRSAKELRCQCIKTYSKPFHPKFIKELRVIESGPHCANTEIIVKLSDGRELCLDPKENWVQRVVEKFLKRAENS
Sequence of Botulinum neurotoxin type A (P0DPI1 2-448 limits assumed): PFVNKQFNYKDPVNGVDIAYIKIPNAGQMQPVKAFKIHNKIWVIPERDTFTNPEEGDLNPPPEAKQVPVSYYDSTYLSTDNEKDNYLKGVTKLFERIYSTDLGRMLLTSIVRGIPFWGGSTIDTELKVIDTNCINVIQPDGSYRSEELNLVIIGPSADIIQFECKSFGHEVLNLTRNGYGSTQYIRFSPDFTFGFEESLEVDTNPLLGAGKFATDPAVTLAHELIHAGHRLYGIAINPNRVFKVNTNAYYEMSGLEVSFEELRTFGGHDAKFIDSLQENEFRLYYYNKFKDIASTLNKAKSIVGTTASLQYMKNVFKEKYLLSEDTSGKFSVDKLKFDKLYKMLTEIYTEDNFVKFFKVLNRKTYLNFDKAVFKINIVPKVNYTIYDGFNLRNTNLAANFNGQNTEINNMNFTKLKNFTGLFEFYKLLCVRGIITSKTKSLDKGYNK
Sequence of Potassium voltage-gated channel subfamily KQT member 2 (O88943 whole entry): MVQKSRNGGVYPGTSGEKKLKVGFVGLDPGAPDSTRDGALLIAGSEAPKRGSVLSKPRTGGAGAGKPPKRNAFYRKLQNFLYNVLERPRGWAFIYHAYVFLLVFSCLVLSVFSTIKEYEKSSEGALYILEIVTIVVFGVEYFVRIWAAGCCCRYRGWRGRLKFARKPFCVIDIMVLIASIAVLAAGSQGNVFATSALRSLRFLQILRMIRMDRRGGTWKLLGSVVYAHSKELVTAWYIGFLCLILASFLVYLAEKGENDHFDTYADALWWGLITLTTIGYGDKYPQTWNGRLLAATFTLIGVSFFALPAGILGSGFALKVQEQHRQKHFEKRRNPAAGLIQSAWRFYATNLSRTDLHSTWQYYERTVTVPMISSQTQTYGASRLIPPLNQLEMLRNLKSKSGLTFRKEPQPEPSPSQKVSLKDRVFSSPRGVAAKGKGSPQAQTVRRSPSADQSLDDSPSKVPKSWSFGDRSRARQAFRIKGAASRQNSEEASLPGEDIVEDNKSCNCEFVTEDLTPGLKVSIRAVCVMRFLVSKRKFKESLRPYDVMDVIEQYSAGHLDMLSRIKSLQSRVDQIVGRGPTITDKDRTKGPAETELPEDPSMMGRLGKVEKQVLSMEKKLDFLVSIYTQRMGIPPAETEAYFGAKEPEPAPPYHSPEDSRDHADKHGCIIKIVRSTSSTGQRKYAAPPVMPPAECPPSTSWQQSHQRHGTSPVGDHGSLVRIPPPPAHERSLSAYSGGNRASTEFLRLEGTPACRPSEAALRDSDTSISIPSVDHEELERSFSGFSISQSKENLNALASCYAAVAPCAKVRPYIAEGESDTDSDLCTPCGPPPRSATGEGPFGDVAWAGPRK
Sequence of Paired box protein Pax-8 (Q06710 whole entry): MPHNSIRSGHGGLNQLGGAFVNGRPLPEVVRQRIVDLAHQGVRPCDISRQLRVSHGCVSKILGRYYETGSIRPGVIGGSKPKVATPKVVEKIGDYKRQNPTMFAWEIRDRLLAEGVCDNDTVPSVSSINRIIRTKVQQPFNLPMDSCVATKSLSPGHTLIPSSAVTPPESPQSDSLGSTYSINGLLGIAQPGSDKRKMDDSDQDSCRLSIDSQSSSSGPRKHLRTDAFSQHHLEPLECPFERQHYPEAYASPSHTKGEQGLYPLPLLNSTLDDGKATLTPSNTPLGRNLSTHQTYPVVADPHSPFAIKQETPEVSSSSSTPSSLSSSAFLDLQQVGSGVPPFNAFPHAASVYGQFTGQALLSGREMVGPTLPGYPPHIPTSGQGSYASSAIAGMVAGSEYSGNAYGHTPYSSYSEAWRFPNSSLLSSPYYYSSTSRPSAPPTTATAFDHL
Sequence of Lethal factor (P15917 whole entry): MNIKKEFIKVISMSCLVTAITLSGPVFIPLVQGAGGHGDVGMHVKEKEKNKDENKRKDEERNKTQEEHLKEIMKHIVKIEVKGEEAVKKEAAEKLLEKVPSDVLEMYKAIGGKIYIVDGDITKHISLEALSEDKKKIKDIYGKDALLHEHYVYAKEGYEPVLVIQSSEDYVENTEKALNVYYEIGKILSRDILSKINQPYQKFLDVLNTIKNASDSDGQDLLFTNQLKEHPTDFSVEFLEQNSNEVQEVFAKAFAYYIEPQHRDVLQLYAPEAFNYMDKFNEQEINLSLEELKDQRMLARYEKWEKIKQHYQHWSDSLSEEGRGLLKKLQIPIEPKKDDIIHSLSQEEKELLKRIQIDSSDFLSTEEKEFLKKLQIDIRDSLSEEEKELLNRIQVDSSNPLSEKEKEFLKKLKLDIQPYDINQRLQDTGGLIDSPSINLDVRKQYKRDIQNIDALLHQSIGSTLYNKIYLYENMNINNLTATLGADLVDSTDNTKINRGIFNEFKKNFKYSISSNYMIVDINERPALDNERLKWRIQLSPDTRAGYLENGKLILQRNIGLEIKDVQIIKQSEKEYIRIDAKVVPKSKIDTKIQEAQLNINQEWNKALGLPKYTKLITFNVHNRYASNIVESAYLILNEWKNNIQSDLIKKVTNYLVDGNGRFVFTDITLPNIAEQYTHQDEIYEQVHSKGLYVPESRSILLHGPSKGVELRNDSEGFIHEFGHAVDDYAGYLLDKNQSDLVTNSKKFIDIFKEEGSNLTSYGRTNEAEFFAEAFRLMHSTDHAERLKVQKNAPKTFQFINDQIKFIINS
Sequence of Botulinum neurotoxin type F (P30996 1-436 limits assumed): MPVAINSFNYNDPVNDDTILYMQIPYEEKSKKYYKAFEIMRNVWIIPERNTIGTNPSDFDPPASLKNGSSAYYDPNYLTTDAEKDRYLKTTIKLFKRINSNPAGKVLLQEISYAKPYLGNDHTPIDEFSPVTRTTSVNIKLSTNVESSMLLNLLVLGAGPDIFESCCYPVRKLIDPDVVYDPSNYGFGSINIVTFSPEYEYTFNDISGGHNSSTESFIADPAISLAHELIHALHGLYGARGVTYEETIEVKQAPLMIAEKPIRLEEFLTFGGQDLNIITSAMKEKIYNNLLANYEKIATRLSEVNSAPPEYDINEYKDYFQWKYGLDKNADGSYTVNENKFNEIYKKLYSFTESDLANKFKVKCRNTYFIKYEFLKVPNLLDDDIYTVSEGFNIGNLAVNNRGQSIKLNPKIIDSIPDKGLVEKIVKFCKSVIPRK

Structure (SMILES): COc1ccc(CC(=O)Nc2ncc([N+](=O)[O-])s2)cc1OC
- EC50 [1]: 1.27 µM (active)
- EC50 [2]: > 60 µM (not active)
- AC50 (Caspase-6): 2.89 µM (active)
- AC50 [3]: 112 µM (active)
- AC50 [4]: 117 µM (active)
- IC50 [5]: 3.21 µM (active)

Structure (SMILES): O=C(CN1C(=O)C(c2ccccc2)Oc2cccnc21)NCc1ccccc1F (configuration not stated)
- IC50 [6]: 1.81 µM (active)

Structure (SMILES): O=C(Nc1ccc(C(=O)N2CCOCC2)cc1)Nc1cccc(C(F)(F)F)c1
- AC50 (HEK293): 3.04 µM (active)
- IC50 (Interleukin-8 [7]): > 79 µM (inactive)
- IC50 (Interleukin-8 [8]): 41.9 µM (inactive)

Structure (SMILES): Cc1cc2nc(-c3cccc(Br)c3)c(Cc3cccc(Cl)c3)n2c(C)c1Br
- EC50 [9]: > 20 µM (inactive)

Structure (SMILES): COc1ccc(-c2cn3nc(-c4ccccc4)c(-c4ccccc4)nc3n2)cc1
- EC50 (Lethal factor): 3.3 µM (active)
- EC50 [10]: 4 µM (active)

Structure (SMILES): O=C(Cc1ccccn1)NCC[C@H]1CC[C@H](NC(=O)Nc2ccc(Cl)cc2)[C@H](CO)O1
- AbsAC35 [11]: 142.06 µM

Structure (SMILES): CCCCCCCn1c2c(c(=N)c3c1CCC3)CCCC2
- EC50 (cells [12]): 0.006 µM (active)
- AC50 [13]: 3.53 µM (active)
- EC50 [1]: < 0.1 µM (active)
- EC50 [14]: > 160 µM (inactive)
- AC50 [15]: 3.24 µM (active)
- AC50 [16]: 2.6 µM (active)
- AC50 [17]: 6.62 µM (active)
- IC50 [18]: 16.7 µM (not active)
- EC50 [2]: > 60 µM (not active)
- EC50 (cells [19]): 27.7 µM (inactive)
- EC50 [20]: 2.79 µM (active)
- AC50 (Paired box protein Pax-8): 0.677 µM (active)
- IC50 (Galanin receptor type 3): > 1.11 µM (active)
